Results reported in US20260235593A1, “FRET BIOSENSOR RECOMBINANT PROTEINS” (The Regents of the University of California, priority 2023, published 2026).

Legend:
Type in all cases: cell-based
[1] = test system: protein kinase A (PKA); test: FRET-based AKAR imaging of PKA activity in HeLa cells upon Fsk/IBMX stimulation
Description: In order to generate KARs that are both bright and photostable, we replaced one of the FPs in the prototypic FRET-based A kinase activity reporter AKAR4 with the self-labeling protein tag HaloTag, which can be flexibly labeled with synthetic fluorophores in different spectral regions. Here, we used a specific green-yellow HaloTag fluorophore (NGD, Table 1)^[12]. To identify the best FRET acceptor for HaloTag^(NGD), we selected a panel of 12 different RFPs with different excitation and emission properties. Given that the FRET efficiency depends not only on the distance between the donor and the acceptor fluorophore, but also on their relative orientation[^13], we tested two different domain orientations (HaloTag-RFP or RFP-HaloTag) and two different linker lengths (flexible linker with 14 amino acids or EV linker with 116 amino acids^[14], FIG. 1A). […] The 48 biosensors were transfected into HeLa cells, the HaloTag labeled with NGD, and the cells stimulated with 50 i.iM forskolin (Fsk) and 100 i.iM 3-isobutyl-1-methylxanthine (IBMX, FIG. 1B). […] We used NGD to label cpHaloTag and measured their response upon Fsk/IBMX stimulation. […] We overexpressed the reporters in HeLa cells and monitored changes in PKA activity after stimulation with 50 tM Fsk and 100 tM IBMX. […] We additionally quantified the on and off kinetics of the biosensor. […]

[2] = molecular target: T1, PKA (Homo sapiens, UniProt P17612); test: Multiplexed biosensor imaging in HEK293T cells: PKA activity (red/far-red HaloTag-AKAR); settings: HEK293T cells co-expressing yellow/far-red HaloTag-EKAR and red/far-red HaloTag-AKAR; 100 ng/mL hEGF; Fsk and 100 μM IBMX together; M H89
T1 construct: endogenous in cells; host or cells: HEK293T; only the biosensors are transfected
Experimental: (§1) Cell culture and transfection HeLa and HEK293T cells were cultured in Dulbecco's modified Eagle medium (DMEM; Gibco) containing glucose (1 g/L) and supplemented with 10% (v/v) fetal bovine serum (Sigma-Aldrich) and 1% (v/v) penicillin-streptomycin (Pen-Strep; Sigma-Aldrich). NIH3T3 cells were cultured in DMEM (Gibco) containing glucose (1 g/L) and supplemented with 10% (v/v) fetal calf serum and 1% (v/v) Pen-Strep (Sigma-Aldrich). All cells were maintained in a humidified incubator at 37° C. with a 5% CO2 atmosphere. Before transfection, cells were plated onto sterile quartered 35-mm glass-bottomed dishes and grown to 50 to 70% confluence. Cells were then transfected using Lipofectamine 2000 (Invitrogen, HeLa) or PolyJet (SignaGen Laboratories, HEK293T and NIH3T3) and grown an additional 48 hours (HeLa, HEK293T) before imaging. NIH3T3 cells were changed to serum-free DMEM immediately before transfection, medium was changed to complete medium after 6 h. NIH3T3 cells were then serum-starved for 24 hours before imaging. HaloTag labeling was performed 24 h before imaging using synthetic fluorophores (Fluorophore-CA 500 nM, 24 h, 37° C.) in the respective medium. Synthetic fluorophores were kindly provided by Luke Lavis (Janelia Research Campus, JF669-CA, JFX646-CA and JF635) or Kai Johnsson (Max Planck Institute for Medical Research (Germany) and EPFL (Switzerland), NGD-CA). […]

[3] = test system: ERK; test: Multiplexed biosensor imaging in HEK293T cells: ERK activity (yellow/far-red HaloTag-EKAR); settings: HEK293T cells co-expressing yellow/far-red HaloTag-EKAR and red/far-red HaloTag-AKAR; 100 ng/mL hEGF
Experimental: as §1

PKA activity [2] | SMILES | FRET/yellow emission ratio after addition of H89 ([1]; HeLa cells expressing RFP-HaloTag^(NGD) AKARs, H89 added after 8 minutes of Fsk/IBMX stimulation) | normalized FRET/donor ratio after addition of H89 ([1]; HeLa cells expressing YFP-HaloTag^(JF669) AKARs, after 50 μM Fsk and 100 μM IBMX) | ERK activity [3]
decrease in PKA activity | O=S(=O)(NCCNC/C=C/c1ccc(Br)cc1)c1cccc2cnccc12 [H89] | FRET/yellow emission ratio of most biosensors decreased | reversible | 
rapid increase in PKA activity | CC(C)Cn1c(=O)n(C)c(=O)c2[nH]cnc21 [IBMX, 3-isobutyl-1-methylxanthine] |  |  | 
 | O=C(Nc1ccc2[nH]nc(-c3ccncc3)c2c1)[C@@H]1CCN(CC(=O)N2CCN(c3ccc(-c4ncccn4)cc3)CC2)C1 [SCH772984] |  |  | only decreased ERK activity
